For eleven compounds, IC50 results are on record in patent publication US9802941B2, “Compounds and methods for inhibiting histone demethylases” (Gilead Sciences, Inc., priority 2014, dated 2017).

Molecules are shown by their SMILES. Like-named read-outs stand apart in the source and are kept apart here. Bounds are passed on as bounds.

What all share (assay type): biochemical
For one assay, the target named is T1, PHF8 (KDM7) (Homo sapiens, UniProt Q9UPP1).
T1 construct: KDM7 (PHF8); BRIC; 1-1322; Bac
In words: Histone lysine demethylase AlphaLISA assay, PHF8. The method in brief: (§1)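 Enzyme was preincubated in buffer (50 mM Hepes pH 7.4-8.0, 0.003-0.01% Tween-20, 0.1% BSA, 5 μM (NH4)2Fe(SO4)2), then added to compound in DMSO and incubated 10 minutes before substrate. After reaction at room temperature, acceptor and streptavidin donor beads were added and AlphaLISA signal read.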

The target of the next assay is T2, KDM5B (PLU-1) (Homo sapiens, UniProt Q9UGL1).
T2 construct: BRIC; 1-809; E. coli; host or cells: E. coli
T2 sequence (Q9UGL1 1-809): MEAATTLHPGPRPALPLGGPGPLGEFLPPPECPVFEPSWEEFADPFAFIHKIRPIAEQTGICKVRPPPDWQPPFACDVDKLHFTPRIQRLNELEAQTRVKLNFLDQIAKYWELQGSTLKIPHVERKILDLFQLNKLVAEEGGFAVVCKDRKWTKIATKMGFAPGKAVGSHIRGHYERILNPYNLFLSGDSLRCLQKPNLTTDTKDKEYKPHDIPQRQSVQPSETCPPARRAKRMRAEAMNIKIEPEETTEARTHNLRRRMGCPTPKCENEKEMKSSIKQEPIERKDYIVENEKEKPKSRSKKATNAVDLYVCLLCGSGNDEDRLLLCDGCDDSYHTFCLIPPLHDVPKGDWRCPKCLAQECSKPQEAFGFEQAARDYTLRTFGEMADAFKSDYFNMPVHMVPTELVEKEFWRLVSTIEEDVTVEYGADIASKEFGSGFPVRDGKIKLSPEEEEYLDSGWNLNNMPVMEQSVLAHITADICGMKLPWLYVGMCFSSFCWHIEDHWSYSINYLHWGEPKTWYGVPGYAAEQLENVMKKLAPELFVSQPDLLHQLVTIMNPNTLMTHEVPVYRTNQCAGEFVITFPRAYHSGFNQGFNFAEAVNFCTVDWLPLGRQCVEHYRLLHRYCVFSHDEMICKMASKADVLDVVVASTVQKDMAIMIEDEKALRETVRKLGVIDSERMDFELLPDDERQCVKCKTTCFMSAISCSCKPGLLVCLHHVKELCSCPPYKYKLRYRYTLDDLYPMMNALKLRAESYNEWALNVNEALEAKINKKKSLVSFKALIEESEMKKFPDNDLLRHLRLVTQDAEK
The experiment in a line: Histone lysine demethylase AlphaLISA assay, KDM5B. In outline: as §1

The target of a further assay is T3, KDM2B (FBXL10) (Homo sapiens, UniProt Q8NHM5).
T3 construct: KDM2B; BPS,; 1-650; Bac; purchased BPS Bioscience, US; host or cells: baculovirus system
T3 sequence (Q8NHM5 1-650): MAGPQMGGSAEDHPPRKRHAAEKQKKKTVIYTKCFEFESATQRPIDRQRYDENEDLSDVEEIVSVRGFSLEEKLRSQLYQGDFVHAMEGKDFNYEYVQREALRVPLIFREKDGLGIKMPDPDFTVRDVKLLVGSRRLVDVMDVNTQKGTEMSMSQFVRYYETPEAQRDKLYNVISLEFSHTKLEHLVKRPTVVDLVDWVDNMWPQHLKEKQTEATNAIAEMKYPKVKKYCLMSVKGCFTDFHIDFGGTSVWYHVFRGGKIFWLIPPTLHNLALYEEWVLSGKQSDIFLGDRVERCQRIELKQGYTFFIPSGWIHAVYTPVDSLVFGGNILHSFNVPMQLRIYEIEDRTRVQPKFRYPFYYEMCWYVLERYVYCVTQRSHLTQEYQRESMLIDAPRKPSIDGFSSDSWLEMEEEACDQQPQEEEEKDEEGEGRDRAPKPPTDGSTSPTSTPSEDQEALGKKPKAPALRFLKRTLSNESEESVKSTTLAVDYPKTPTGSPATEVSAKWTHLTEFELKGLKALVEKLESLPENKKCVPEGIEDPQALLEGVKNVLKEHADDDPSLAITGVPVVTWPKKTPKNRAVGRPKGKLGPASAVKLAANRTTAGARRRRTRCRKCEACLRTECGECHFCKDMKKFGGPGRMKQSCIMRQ
The experiment in a line: Histone lysine demethylase AlphaLISA assay, KDM2B. The method in brief:
as §1

The target of the next assay is T4, KDM4C (JMJD2C) (Homo sapiens, UniProt Q9H3R0).
T4 construct: KDM4C; BRIC, Denmark; 1-349; E. coli; host or cells: E. coli
T4 sequence (Q9H3R0 1-349): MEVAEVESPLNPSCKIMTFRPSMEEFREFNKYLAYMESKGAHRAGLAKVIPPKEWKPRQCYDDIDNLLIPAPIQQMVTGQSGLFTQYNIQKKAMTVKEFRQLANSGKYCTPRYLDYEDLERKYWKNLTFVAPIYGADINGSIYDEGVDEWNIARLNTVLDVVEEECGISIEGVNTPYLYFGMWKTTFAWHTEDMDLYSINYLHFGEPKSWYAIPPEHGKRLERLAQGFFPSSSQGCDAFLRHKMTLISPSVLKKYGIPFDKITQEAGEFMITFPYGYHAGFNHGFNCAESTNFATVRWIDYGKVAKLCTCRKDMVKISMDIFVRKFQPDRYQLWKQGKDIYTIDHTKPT
The experiment in a line: Histone lysine demethylase AlphaLISA assay, KDM4C. The method in brief:
as §1

The mark [1] stands for this setting: AlphaLISA assay, read-out: HDME Inhibition PHF8 (IC50).
The mark [2] stands for this setting: AlphaLISA, in vitro, read-out: HDME Inhibition PHF8.
[3] abbreviates: AlphaLISA assay, read-out: HDME Inhibition KDM5B (IC50).
The mark [4] stands for this setting: AlphaLISA, in vitro, read-out: HDME Inhibition KDM5B.
Setting [5] is: AlphaLISA assay, read-out: HDME Inhibition KDM2B (IC50).
[6] abbreviates: AlphaLISA, in vitro, read-out: HDME Inhibition KDM2B.
[7] abbreviates: AlphaLISA assay, read-out: HDME Inhibition KDM4C (IC50).
Where [8] appears, read: AlphaLISA, in vitro, read-out: HDME Inhibition KDM4C.

T1 sequence (Q9UPP1 37-440 limits assumed): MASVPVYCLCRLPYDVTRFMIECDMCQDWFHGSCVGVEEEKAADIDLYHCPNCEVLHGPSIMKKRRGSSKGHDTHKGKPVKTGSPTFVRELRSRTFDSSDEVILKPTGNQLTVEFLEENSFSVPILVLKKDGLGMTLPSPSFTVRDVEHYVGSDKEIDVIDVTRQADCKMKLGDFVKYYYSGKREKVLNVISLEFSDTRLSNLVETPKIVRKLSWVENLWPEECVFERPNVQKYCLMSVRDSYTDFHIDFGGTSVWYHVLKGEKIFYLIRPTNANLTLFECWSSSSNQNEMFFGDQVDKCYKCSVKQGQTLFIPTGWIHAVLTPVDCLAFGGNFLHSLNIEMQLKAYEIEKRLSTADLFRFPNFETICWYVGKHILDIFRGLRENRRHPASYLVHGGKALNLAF

As for `COc1ccc(O)c(CCNCc2cc(C(=O)O)cc(CO)n2)n1` [Compound 109, 2-({[2-(3-hydroxy-6-methoxypyridin-2-yl)ethyl]amino}methyl)-6-(hydroxymethyl)pyridine-4-carboxylic acid], the IC50 on PHF8 (KDM7) (setting [1]), at PHF8 (KDM7) (setting [2]), at KDM5B (PLU-1) (setting [3]), at KDM5B (PLU-1) (setting [4]), at KDM2B (FBXL10) (setting [5]) and on KDM2B (FBXL10) (setting [6]) was more than 10 µM each time. For the same compound, the IC50 at KDM4C (JMJD2C) (setting [7]) and at KDM4C (JMJD2C) (setting [8]) was more than 10 µM throughout.
Take `Cc1nnc(CNCc2cc(C(=O)O)cc(CO)n2)n1Cc1ccc(F)cc1` [Compound 72, 2-{[({4-[(4-fluorophenyl)methyl]-5-methyl-4H-1,2,4-triazol-3-yl}methyl)amino]methyl}-6-(hydroxymethyl)pyridine-4-carboxylic acid]: the IC50 at PHF8 (KDM7) (setting [2]) was 0.529 µM; at KDM5B (PLU-1) (setting [3]), more than 10 µM; at KDM5B (PLU-1) (setting [4]), more than 10 µM; at KDM2B (FBXL10) (setting [6]) it was 0.283 µM; on KDM4C (JMJD2C) (setting [7]) it was more than 10 µM; on KDM4C (JMJD2C) (setting [8]), more than 10 µM.
Turning to `CSc1cnc(CNCc2cc(C(=O)O)cc(C)n2)n1Cc1ccc(F)cc1` [Compound 43, 2-{[({1-[(4-fluorophenyl)methyl]-5-(methylsulfanyl)-1H-imidazol-2-yl}methyl)amino]methyl}-6-methyl pyridine-4-carboxylic acid], the IC50 was 0.869 µM at PHF8 (KDM7) (setting [2]); more than 10 µM on KDM5B (PLU-1) (setting [3]); more than 10 µM on KDM5B (PLU-1) (setting [4]); 0.442 µM on KDM2B (FBXL10) (setting [6]); more than 10 µM at KDM4C (JMJD2C) (setting [7]); more than 10 µM at KDM4C (JMJD2C) (setting [8]).
For `Cc1ccc(OCCC(C)C)c(CCNCc2cc(C(=O)O)cc(C)n2)c1` [Compound 89, 2-methyl-6-[({2-[5-methyl-2-(3-methylbutoxy)phenyl]ethyl}amino)methyl]pyridine-4-carboxylic acid], the IC50 on PHF8 (KDM7) (setting [1]) was more than 10 µM; on PHF8 (KDM7) (setting [2]) it was more than 10 µM; at KDM5B (PLU-1) (setting [3]), more than 10 µM; on KDM5B (PLU-1) (setting [4]), more than 10 µM; at KDM2B (FBXL10) (setting [6]), 2.3 µM; on KDM4C (JMJD2C) (setting [7]), more than 10 µM. Further, the IC50 at KDM4C (JMJD2C) (setting [8]) was more than 10 µM.
For `COc1ccc(OCc2ccccc2)c(CNCc2cc(C(=O)O)cc(CO)n2)n1` [Compound 93, 2-[({[3-(Benzyloxy)-6-methoxypyridin-2-yl]methyl}amino)methyl]-6-(hydroxymethyl)pyridine-4-carboxylic acid], the IC50 was 1.48 µM at PHF8 (KDM7) (setting [2]); more than 10 µM at KDM5B (PLU-1) (setting [3]); more than 10 µM on KDM5B (PLU-1) (setting [4]); 0.032 µM at KDM2B (FBXL10) (setting [6]); more than 10 µM at KDM4C (JMJD2C) (setting [7]); more than 10 µM at KDM4C (JMJD2C) (setting [8]).
On to `Cc1cc(C(=O)O)cc(CNCc2ncc(C(C)O)n2Cc2ccc(F)cc2)n1` (stereo not shown) [Compound 63, 2-{[({1-[(4-fluorophenyl)methyl]-5-(1-hydroxyethyl)-1H-imidazol-2-yl}methyl)amino]methyl}-6-methylpyridine-4-carboxylic acid], for which the IC50 is 1.4 µM at PHF8 (KDM7) (setting [2]); more than 10 µM at KDM5B (PLU-1) (setting [3]); more than 10 µM at KDM5B (PLU-1) (setting [4]); 0.333 µM at KDM2B (FBXL10) (setting [6]); more than 10 µM on KDM4C (JMJD2C) (setting [7]); more than 10 µM on KDM4C (JMJD2C) (setting [8]).
`Cc1cc(OCc2ccccc2)c(CCNCc2cc(C(=O)O)cc(C)n2)nn1` [Compound 82, 2-[({2-[4-(benzyloxy)-6-methylpyridazin-3-yl]ethyl)amino)methyl]-6-methylpyridine-4-carboxylic acid]: the IC50 at PHF8 (KDM7) (setting [2]) is 3.32 µM; at KDM5B (PLU-1) (setting [3]) it was more than 10 µM; on KDM5B (PLU-1) (setting [4]) it was more than 10 µM; at KDM2B (FBXL10) (setting [6]) it was 1.4 µM; on KDM4C (JMJD2C) (setting [7]), more than 10 µM; on KDM4C (JMJD2C) (setting [8]), more than 10 µM.
For the compound `COc1ccc(CC(C)C)c(CNCc2cc(C(=O)O)cc(CO)n2)n1` [Compound 84, 2-(hydroxymethyl)-6-[({[6-methoxy-3-(2-methylpropyl)pyridin-2-yl]methyl}amino)methyl]pyridine-4-carboxylic acid], the IC50 on PHF8 (KDM7) (setting [2]) was 0.673 µM; at KDM5B (PLU-1) (setting [4]), 6.2 µM; at KDM2B (FBXL10) (setting [6]), 0.251 µM; at KDM4C (JMJD2C) (setting [7]), more than 10 µM; on KDM4C (JMJD2C) (setting [8]) it was more than 10 µM.
For `CCN(CCN(C)C)C(=O)CNCc1cc(C(=O)O)cc(C)n1` [Compound 98, 2-{[({[2-(dimethylamino)ethyl](ethyl)carbamoyl}methyl)amino]methyl}-6-methylpyridine-4-carboxylic acid], the IC50 on PHF8 (KDM7) (setting [1]) was more than 10 µM; at PHF8 (KDM7) (setting [2]) it was more than 10 µM; at KDM5B (PLU-1) (setting [4]), 0.008 µM; at KDM2B (FBXL10) (setting [6]), 0.53 µM; on KDM4C (JMJD2C) (setting [8]), 1.67 µM.
`CC(C)C[C@@H](CO)NCc1cc(C(=O)O)cc(CO)n1` [Compound 79, 2-({[(2S)-1-hydroxy-4-methylpentan-2-yl]amino}methyl)-6-(hydroxymethyl)pyridine-4-carboxylic acid]: the IC50 on PHF8 (KDM7) (setting [1]), at PHF8 (KDM7) (setting [2]), at KDM5B (PLU-1) (setting [3]), at KDM5B (PLU-1) (setting [4]), on KDM2B (FBXL10) (setting [5]) and at KDM2B (FBXL10) (setting [6]) was more than 10 µM throughout. Also, the IC50 at KDM4C (JMJD2C) (setting [7]) and on KDM4C (JMJD2C) (setting [8]) was more than 10 µM in each case.
For `O=C(O)c1cc(CO)nc(CNCc2nccn2Cc2ccc(F)cc2)c1` [Compound 81, 2-{[({1-[(4-fluorophenyl)methyl]-1H-imidazol-2-yl}methyl)amino]methyl}-6-(hydroxymethyl)pyridine-4-carboxylic acid], the IC50 on PHF8 (KDM7) (setting [2]) came out at 0.334 µM; against KDM5B (PLU-1) it was 0.021 µM; on KDM2B (FBXL10) (setting [6]), 0.14 µM; on KDM4C (JMJD2C) (setting [8]), 0.823 µM.
